System: NHP oocytes (SCC-intact) and rhesus enucleated cytoplasts
Assay: Taxol-induced microtubule recruitment; immunocytochemistry of HSET, NuMA, microtubules and DNA
Type: cell-based, rhesus (nonhuman primate)
Settings: 10 μM paclitaxel
From the text: FIGS. 9A-9C show microtubule patterns (green) observed in rhesus cytoplast after enucleation (FIG. 9A) or following artificial activation at 24 (FIG. 9B) or at 48 hrs (FIG. 9C) post-ionomycin/DMAP. Following enucleation, no assembled cytoplasmic microtubules (FIG. 9A: green) are observed. After activation, abundant disarrayed microtubules (FIG. 9B: green) assemble in the DNA-less cytoplast. Rarely, a microtubule structure resembling a bipolar spindle (FIG. 9C: green) assembles in the cytoplasm. The insets of FIGS. 9A-9C show DNA imaging confirming successful removal of the SCC. […] Second meiotic chromosomes, are blue. FIGS. 9H-9J show a rhesus enucleated cytoplast treated for 30 minutes with 10 μM paclitaxel prior to fixation and detection of DNA (H, blue), microtubules (I, red), and HSET (J, green). The assembled cytoplasmic microtubule bundles are not labeled by HSET antibody. FIGS. 9A-9C and 9E are double-labeled images for microtubules (green) and DNA (blue). FIGS. 9D, 9F, and 9G are triple-labeled images for HSET (green), microtubules (red) and DNA (blue). FIGS. 9H-9J are single-labeled images for DNA (blue), microtubules (red), and HSET (green). Bars represent 10 μm.
FIGS. 10D and 10E show NuMA detection in the somatic cell nuclei of cumulus (FIG. 10D: green) and rhesus fibroblast cells (FIG. 10E: green; red, microtubules). […] NuMA (green) is strongly detected in the decondensed male pronucleus (MPn), but diminished in the unsuccessful fibroblast cell (arrowhead) attached at the oocyte surface. In the upper inset of FIG. 10F, red depicts microtubules while blue depicts DNA. In the lower inset of FIG. 10F, the sperm centrosome organizes a microtubule astral array (arrow) near the decondensed male pronucleus. […] NuMA (green) is found at both poles on the intact metaphase-II spindle (red) with aligned chromosomes (blue) as well as at the base of the condensed sperm head (blue, arrow). However, NuMA (green) is missing from the disorganized multipolar NT spindle microtubules (red) assembling around the scattered somatic cell chromosomes (blue). […] NuMA (green) is detected at the poles in both the NT spindle (lower arrow; red, microtubules; blue, DNA) and the intact second meiotic metaphase spindle (upper arrow; red, microtubules; blue, DNA). […]
Imaging. […] NuMA, HSET (human spleen embryonic tissue and testis), and Eg5 were detected using rabbit polyclonal antibodies as described in Mountain, 147 J. CELL BIOL. […] Primary antibodies were detected using Alexa secondary antibodies (Alexa-546 goat anti-mouse IgG; Alexa-488 goat anti-rabbit IgG; Molecular Probes, Eugene, Oreg.). […] DNA was fluorescently detected with 10 μg/ml Hoechst 33342 (Sigma) and 1 μM Toto-3 (Molecular Probes) added to the penultimate rinse. […]

Compound: CC(=O)O[C@H]1C(=O)[C@@]2(C)[C@H]([C@H](OC(=O)c3ccccc3)[C@]3(O)C[C@H](OC(=O)[C@H](O)[C@@H](NC(=O)c4ccccc4)c4ccccc4)C(C)=C1C3(C)C)[C@]1(OC(C)=O)CO[C@@H]1C[C@@H]2O [Paclitaxel]
- NuMA localization (SCC-intact mature NHP oocyte, 20 minutes (FIG. 10C)): NuMA localization at disorganized spindle poles
- cytoplasmic microtubule assembly (enucleated cytoplast lacking the SCC, 30 minutes (FIG. 9I)): numerous cytoplasmic microtubule bundles assembled in the cytoplasm
- HSET detection at cytoplasmic microtubule bundles (enucleated cytoplast lacking the SCC, 30 minutes (FIG. 9J)): without HSET protein detection
- HSET protein localization (intact mature oocyte, 30 minutes (FIG. 9G)): enhanced HSET protein only at the second meiotic spindle poles
